From PubChem BioAssay (NCI)
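Five concentrations, 48 hours, 96-well plates. The concentration for 50% growth inhibition is given as GI50. TGI marks complete inhibition of growth.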

Key:
Experiment in all cases: growth of human tumour cells (NCI), 48 h
[1] = tested on: DLD-1 colon
[2] = tested on: UO-31 renal
[3] = tested on: SF-539 CNS
[4] = tested on: LOX IMVI melanoma
[5] = tested on: NCI-H460 lung
[6] = tested on: U251 CNS
[7] = tested on: A549 NSCLC
[8] = tested on: OVCAR-8 ovarian
[9] = tested on: SNB-75 CNS
[10] = tested on: RXF 393 renal
[11] = tested on: MALME-3M melanoma
[12] = tested on: SNB-78 CNS
[13] = tested on: HT29 colon
[14] = tested on: NCI-H226 lung
[15] = tested on: SK-MEL-5 melanoma
[16] = tested on: SK-OV-3 ovarian
[17] = tested on: M14 melanoma
[18] = tested on: 786-0 renal
[19] = tested on: HCC-2998 colon
[20] = tested on: UACC-257 melanoma
[21] = tested on: HCT-15 colon
[22] = tested on: DMS 273 small cell lung
[23] = tested on: SW-620 colon
[24] = tested on: SF-295 CNS
[25] = tested on: LXFL 529 NSCLC
[26] = tested on: A498 renal
[27] = tested on: SK-MEL-2 melanoma
[28] = tested on: MOLT-4 leukemia
[29] = tested on: OVCAR-3 ovarian
[30] = tested on: NCI-H522 lung
[31] = tested on: UACC-62 melanoma
[32] = tested on: SF-268 CNS
[33] = tested on: RPMI-8226 leukemia
[34] = tested on: SN12C renal
[35] = tested on: OVCAR-4 ovarian
[36] = tested on: K-562 leukemia
[37] = tested on: NCI-H23 lung
[38] = tested on: HCT-116 colon
[39] = tested on: OVCAR-5 ovarian
[40] = tested on: SK-MEL-28 melanoma
[41] = tested on: HL-60(TB) leukemia
[42] = tested on: COLO 205 colon
[43] = tested on: SNB-19 CNS
[44] = tested on: KM12 colon
[45] = tested on: EKVX NSCLC
[46] = tested on: CCRF-CEM leukemia
[47] = tested on: IGROV1 ovarian
[48] = tested on: CAKI-1 renal
[49] = tested on: KM20L2 colon
[50] = tested on: HOP-18 NSCLC
[51] = tested on: HOP-62 NSCLC
[52] = tested on: ACHN renal
[53] = tested on: TK-10 renal
[54] = tested on: M19-MEL melanoma

Structure (SMILES): NC1CCCCC1N.O=C([O-])c1cc(S(=O)(=O)Nc2cc(S(=O)(=O)[O-])cc3cc(S(=O)(=O)[O-])cc(O)c23)ccc1[O-].[Pt+4]
- GI50 [1]: > 100 µM
- TGI [1]: > 100 µM
- GI50 [2]: > 100 µM
- TGI [2]: > 100 µM
- GI50 [3]: > 100 µM
- TGI [3]: > 100 µM
- GI50 [4]: > 100 µM
- TGI [4]: > 100 µM
- GI50 [5]: 41.8 µM
- TGI [5]: > 100 µM
- GI50 [6]: > 100 µM
- TGI [6]: > 100 µM
- GI50 [7]: 61.6 µM
- TGI [7]: > 100 µM
- GI50 [8]: > 100 µM
- TGI [8]: > 100 µM
- GI50 [9]: > 100 µM
- TGI [9]: > 100 µM
- GI50 [10]: > 100 µM
- TGI [10]: > 100 µM
- GI50 [11]: 63.5 µM
- TGI [11]: > 100 µM
- GI50 [12]: > 100 µM
- TGI [12]: > 100 µM
- GI50 [13]: > 100 µM
- TGI [13]: > 100 µM
- GI50 [14]: > 100 µM
- TGI [14]: > 100 µM
- GI50 [15]: 88.7 µM
- TGI [15]: > 100 µM
- GI50 [16]: > 100 µM
- TGI [16]: > 100 µM
- GI50 [17]: > 100 µM
- TGI [17]: > 100 µM
- GI50 [18]: > 100 µM
- TGI [18]: > 100 µM
- GI50 [19]: > 100 µM
- TGI [19]: > 100 µM
- GI50 [20]: > 100 µM
- TGI [20]: > 100 µM
- GI50 [21]: > 100 µM
- TGI [21]: > 100 µM
- GI50 [22]: > 100 µM
- TGI [22]: > 100 µM
- GI50 [23]: > 100 µM
- TGI [23]: > 100 µM
- GI50 [24]: > 100 µM
- TGI [24]: > 100 µM
- GI50 [25]: > 100 µM
- TGI [25]: > 100 µM
- GI50 [26]: > 100 µM
- TGI [26]: > 100 µM
- GI50 [27]: > 100 µM
- TGI [27]: > 100 µM
- GI50 [28]: > 100 µM
- TGI [28]: > 100 µM
- GI50 [29]: > 100 µM
- TGI [29]: > 100 µM
- GI50 [30]: > 100 µM
- TGI [30]: > 100 µM
- GI50 [31]: > 100 µM
- TGI [31]: > 100 µM
- GI50 [32]: > 100 µM
- TGI [32]: > 100 µM
- GI50 [33]: 89.5 µM
- TGI [33]: > 100 µM
- GI50 [34]: > 100 µM
- TGI [34]: > 100 µM
- GI50 [35]: > 100 µM
- TGI [35]: > 100 µM
- GI50 [36]: > 100 µM
- TGI [36]: > 100 µM
- GI50 [37]: > 100 µM
- TGI [37]: > 100 µM
- GI50 [38]: > 100 µM
- TGI [38]: > 100 µM
- GI50 [39]: > 100 µM
- TGI [39]: > 100 µM
- GI50 [40]: > 100 µM
- TGI [40]: > 100 µM
- GI50 [41]: 89.8 µM
- TGI [41]: > 100 µM
- GI50 [42]: > 100 µM
- TGI [42]: > 100 µM
- GI50 [43]: > 100 µM
- TGI [43]: > 100 µM
- GI50 [44]: > 100 µM
- TGI [44]: > 100 µM
- GI50 [45]: > 100 µM
- TGI [45]: > 100 µM
- GI50 [46]: > 100 µM
- TGI [46]: > 100 µM
- GI50 [47]: > 100 µM
- TGI [47]: > 100 µM
- GI50 [48]: > 100 µM
- TGI [48]: > 100 µM
- GI50 [49]: > 100 µM
- TGI [49]: > 100 µM
- GI50 [50]: > 100 µM
- TGI [50]: > 100 µM
- GI50 [51]: > 100 µM
- TGI [51]: > 100 µM
- GI50 [52]: > 100 µM
- TGI [52]: > 100 µM
- GI50 [53]: > 100 µM
- TGI [53]: > 100 µM
- GI50 [54]: > 100 µM
- TGI [54]: > 100 µM
